In PubChem BioAssay (NCI):
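Protocol summary: plate cells (96-well), add compound at 5 concentrations, incubate 48 h, interpolate endpoints linearly. GI50 marks 50% less growth. At the TGI there is no net growth.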

What was measured:
Experiment in all cases: NCI-60 cell line screen, 48 h
[1] = test system: HOP-62 NSCLC
[2] = test system: HT29 colon
[3] = test system: NCI-H226 lung
[4] = test system: NCI-H460 lung
[5] = test system: RXF 393 renal
[6] = test system: SF-268 CNS
[7] = test system: SR leukemia
[8] = test system: SW-620 colon
[9] = test system: DU-145 prostate
[10] = test system: MCF7 breast

Compound	TGI [1] [µM]	TGI [2] [µM]	TGI [3] [µM]	TGI [4] [µM]	TGI [5] [µM]	TGI [6] [µM]	TGI [7] [µM]	TGI [8] [µM]	TGI [9] [µM]	TGI [10] [µM]	GI50 [9] [µM]	GI50 [1] [µM]	GI50 [2] [µM]	GI50 [10] [µM]	GI50 [4] [µM]	GI50 [5] [µM]	GI50 [6] [µM]	GI50 [7] [µM]	GI50 [8] [µM]	GI50 [3] [µM]
CC(=O)n1nnc2ccc([N+](=O)[O-])cc21	> 100	> 100	> 100	> 100	> 100	> 100	> 100	> 100												
O=C1c2cccc([N+](=O)[O-])c2C(=O)c2nccnc21		4.3	4.06	2.79	3.71		5.04	3.92												
CN(C)CCCOc1ccc(/C=C2/CCC/C(=C/c3ccc(OCCCN(C)C)cc3)C2=O)cc1	4.49			4.16	2.98	4.84		3.73												
COC(=O)CC1C2(C)C3=C(C)C(c4ccoc4)CC3OC2C2OC(=O)C3(C)C=CC(=O)C1(C)C23 (stereo not drawn)	9.1	2.49	7.68	3.26	3	7.62		4.39	2.06	1.95										
Clc1ccc(-c2nc3c(-c4ccccc4)nc(-c4ccccc4)cn3c2-c2ccc(Cl)cc2)cc1	> 100	> 100		> 100	> 100	> 100	> 100	> 100	> 100	> 100	> 100	> 100	> 100	> 100	> 100	> 100	> 100	> 100	> 100	
Cc1cc(Cl)ccc1NC(=O)CC1SC(=NC(=O)c2ccccc2Cl)NC1=O (stereo not drawn)		45	75	> 100	35.1	36.7	34.5	32.3												
O=C1Nc2ccc(O)cc2/C1=C\c1ccncc1	56.4			42.9		36.3	17.8	58.3	54.2	38.2	19.5	23.9		4.18	12.7		12	3.75	25.5	
CC(C)COC(=O)c1ccc(N=Cc2ccc(C=Nc3ccc(C(=O)OCC(C)C)cc3)cc2)cc1	> 100	> 100	> 100	> 100		> 100	> 100	> 100												
N#CC(C#N)=Cc1ccc(C(O)P(=O)(O)O)cc1 (stereo not drawn)	> 100	> 100	> 100	> 100		> 100		> 100												
Cc1ccc(NC(=O)CCc2nnc3s/c(=C\c4cccc([N+](=O)[O-])c4)c(=O)n23)cc1	> 100	> 100	> 100	> 100	> 100	> 100	> 100	38.6												
Cc1cncc(-c2nc(NCCc3c[nH]c4ccccc34)c3ncn(C(C)C)c3n2)c1	22.9	5.17	20.5	13.3	11.2	38.6		15.1	22.1	15.6	4.41	6.01	2.11	4.05	3.33	2.54	5.93		3.48	4.69
C=C1C(=O)O[C@@H]2C[C@@H]1CC[C@]1(C)O[C@H]1CC/C(C)=C/CC[C@@]2(C)O	47.7	31.7	59.2	40.2	55.4	50.5	15.7	33.7		36		24.2	15.4	15.2	15.7	25.1	19.9	4.07	15.8	21.7
O=C(Nc1ccccc1)n1cc(-c2ccccn2)c(N2CCOCC2)n1	> 100	19.1	> 100	> 100		> 100		> 100												
CN1CCN(Cc2ccc(NC(=O)c3cncc(C#Cc4c(N)ncc5c(F)cccc45)c3)cc2C(F)(F)F)CC1	3.87	1.08	3.38	1.57	1.54	1.61		1.16	1.52	1.31	0.832	1.28	0.305	0.55	0.803	0.799	0.741		0.454	0.689
Cc1ccc(C(=O)C(c2nc3n(c2O)C(=N)N=N3)c2nc3n(c2O)C(=N)N=N3)cc1 (stereo not drawn)		> 100	> 100	> 100	> 100	> 100		> 100												
COC(=O)C(=O)C(C#N)c1cccc(Cl)c1 (stereo not drawn)	> 100	> 100	> 100	> 100	> 100	> 100	> 100	> 100												
COc1cccc(N2C(=O)/C(=C/c3ccc(N(CCC#N)CCC#N)cc3)N=C2c2cc([N+](=O)[O-])ccc2Cl)c1	> 100	> 100	> 100	> 100		> 100	> 100	> 100												
O=CC1CCC=CC1NC(=O)OCc1ccccc1 (stereo not drawn)	> 100	> 100	> 100	> 100	> 100	> 100	> 100	> 100												
O=C(CCC(=O)Nc1ccc(Cl)cc1)CC(=O)c1ccc2ccccc2c1	> 100	> 100	> 100	> 100	> 100	> 100	> 100	> 100												
O=c1c2ccccc2nc2n1CCc1c-2[nH]c2cc3c(cc12)OCO3	> 25			> 25		> 25	> 25	> 25		> 25					1.55					
CCOC(=O)NC(=O)c1cn(CCCCCCCCCCC(=O)NCCCN2CCN(CCCNC(=O)CCCCCCCCCCn3cc(C(=O)NC(=O)OCC)c(=O)[nH]c3=O)CC2)c(=O)[nH]c1=O	> 10	> 100		> 100		> 100	> 100	> 100												
